The NIST ThermoML archive (doi:10.1016/j.jct.2016.05.001)

Conditions: 101.33 kPa, Crystal; for molar entropy: Small (less than 1 g) adiabatic calorimetry; for mass density: X-ray diffraction

Nc1nc2ncc(CNc3ccc(C(=O)N[C@@H](CCC(=O)O)C(=O)O)cc3)nc2c(=O)[nH]1.O.O [folic acid dihydrate]
Conditions | mass density [kg/m3] | molar entropy [J/K/mol]
4 K | – | 0.0255
5 K | – | 0.0623
6 K | – | 0.1291
7 K | – | 0.2371
8 K | – | 0.3983
9 K | – | 0.6346
10 K | – | 0.962
15 K | – | 3.956
20 K | – | 8.733
25 K | – | 15.36
30 K | – | 23.55
35 K | – | 32.93
40 K | – | 43.15
45 K | – | 53.9
50 K | – | 65
60 K | – | 87.81
70 K | – | 111.2
80 K | – | 134.6
90 K | – | 157.6
100 K | – | 180.2
110 K | – | 202.6
120 K | – | 224.6
130 K | – | 246.2
140 K | – | 267.7
150 K | 1556 | 288.9
160 K | – | 309.9
170 K | – | 330.6
175 K | 1554 | –
180 K | – | 351.2
190 K | – | 371.6
200 K | 1552 | 391.9
210 K | – | 412
220 K | – | 432
225 K | 1550 | –
230 K | – | 451.9
240 K | – | 471.7
250 K | 1549 | 491.4
260 K | – | 511
270 K | – | 530.5
273.15 K | – | 536.6
275 K | 1546 | –
280 K | – | 549.9
290 K | – | 569.3
298.15 K | – | 585
300 K | 1543 | 588.6
310 K | – | 607.8
320 K | – | 627
325 K | 1542 | –
330 K | – | 646.1
333 K | – | 651.9
350 K | 1540 | –
375 K | 1537 | –
